Experimental findings from US20080081333A1, “METHYLATED PROMOTERS AS BIOMARKERS OF COLON CANCER” (UNIVERSITY OF MARYLAND, BALTIMORE, priority 2006, published 2008) are described below.

One assay has as its system OE33. Description: 5-Aza-dC treatment of esophageal cancer cell line, qMSP and qRT-PCR. In kind it is cell-based. How it is done: (§1) Samples and cell lines were treated as in Example 1. Briefly, extracted DNA was treated with bisulfite to convert unmethylated cytosines to uracils prior to MSP. Promoter methylation levels of TAC1 were determined using qMSP with the ABI 7700 Sequence Detection (Taqman) System, using primers and probes described. A normalized methylation value (NMV), reflecting the percentage of DNA methylated for the gene of interest (GoI), was defined as follows: NMV=(GoI-S/GoI-FM)/(ACTB-S/ACTB-FM), where GoI-S and GoI-FM represent GoI methylation levels in the sample and fully methylated DNAs, respectively, while ACTB-S and ACTB-FM correspond to β-Actin in the sample and fully methylated DNAs, respectively.
(§2) To determine SST mRNA levels, one-step real-time quantitative RT-PCR was performed using a Qiagen QuantiTect Probe RT-PCR Kit (Qiagen, Hilden, Germany) and the ABI 7700 Sequence Detection (Taqman) System. Primers and probes were the same as previously reported. 12 β-Actin was used for normalization of data. A standard curve was generated using serial dilutions of qPCR Reference Total RNA (Clontech, Mountainview, Calif.). The normalized mRNA value (NRV) was calculated according to the following formula for relative expression of target mRNA: NRV=(TarS/TarC)/(ACTB-S/ACTB-C), where TarS and TarC represent levels of mRNA expression for the target gene in sample and control mRNAs, respectively, whereas ACTB-S and ACTB-C correspond to amplified ACTB levels in sample and control mRNAs, respectively.
To determine whether SST inactivation was due to promoter hypermethylation in esophageal cancer, 2 esophageal cancer cell lines (KYSE220 and OE33) were subjected to 5-Aza-dC (Sigma, St. Louis, Mo.) treatment. Briefly, 1×10^5 cells/ml were seeded onto a 100 mm dish and grown for 24 h. Then, 1 μl of 5 mM 5-Aza-dC per ml of cells was added every 24 hours for 6 days. DNA and RNA were harvested on day 6.
(§3) Samples were treated as in Examples 1 and 2. Briefly, to determine AKAP12 mRNA levels, one-step real-time quantitative RT-PCR was performed using a Qiagen QuantiTect Probe RT-PCR Kit (Qiagen, Hilden, Germany) and the ABI 7700 Sequence Detection System (Applied Biosystems, Foster City, Calif.). Primers and probe for AKAP12 were as follows: […]
(§4) β-actin was used for normalization of data. Primers and probe for β-actin were the same as previously reported. […] Normalized mRNA value (NRV) was calculated according to the following formula for relative expression of target mRNA: NRV=(TarS/TarC)/(ACTB-S/A CTB-C, where TarS and TarC represent levels of mRNA expression for the target gene in sample and control mRNAs, respectively, while ACTB-S and ACTB-C correspond to amplified ACTB levels in sample and control mRNAs, respectively.
For orientation: In qPCR the cycle at which signal appears reflects the starting amount.

The test system of another assay is HCT116 and HT29. Description: quantitative MSP and real-time RT-PCR with and without 5-aza-dC treatment, five further genes. In kind it is cell-based, human. The note with it: all five genes, in a colon cancer cell line, after 5-aza-dC treatment. How it is done:
Next, a cDNA microarray analysis of two colon cancer cell lines was performed, comparing cells treated with 5-aza-dC and untreated cells. Briefly, the colon cancer cell lines HT29 and HCT116 were seeded at a density of 4×10^5 cells per 75 cm^2 culture flask and incubated for 24 hours in growth media. The cells were then treated with 5-aza-dC in either one of the following conditions: a) 10 μM 5-aza-dC for 84 hours or b) 1 μM 5-aza-dC for 24 hours followed by 60 hours of 5-aza-dC-free growth. […]
Tumor samples were snap frozen on dry ice and stored at −80° C. […] DNA methylation status and levels of the 4 candidate markers were determined with real-time quantitative MSP using the ABI 7900 HT Sequence Detection (Taqman) System, as described previously in Sato F., et al., Cancer Res. 62:6820-22 (2002), which is incorporated by reference. Primers and probes for quantitative MSP of (SHP-1, DcR1, RARβ, and DcR2) are disclosed in Takahashi, T. et al, Int'l J. Cancer, 118(4): 924-931 (2005), which is incorporated by reference.
DNA methylation status and levels of 5 genes were determined with real-time quantitative MSP using the ABI 7900 HT Sequence Detection (Taqman) System, as described previously in Sato F., et al., Cancer Res. 62:6820-22 (2002), which is incorporated by reference. Primers and probes for quantitative MSP of ENG, MAL, CAV1, TAC1, SST, NELL1 and AKAP12 are below in Tables III and IV. […]

For another assay, the system named is BIC. Description: 5-Aza-dC treatment of esophageal cancer cell line, qMSP and qRT-PCR. In kind it is cell-based. How it is done: as §1
(§5) To determine TAC1 mRNA levels, one-step real-time quantitative RT-PCR was performed using a Qiagen QuantiTect Probe RT-PCR Kit (Qiagen, Hilden, Germany) and the ABI 7700 Sequence Detection (Taqman) System. Primers and probes are described herein. β-Actin was used to normalize data. A standard curve was generated using serial dilutions of qPCR Reference Total RNA (Clontech, Mountainview, Calif.). The normalized mRNA value (NRV) was calculated according to the following formula for relative expression of target mRNA: Expression index=(TarS/TarC)/(ACTB-S/ACTB-C, where TarS and TarC represent levels of mRNA expression for the target gene in the sample and control mRNAs, respectively, whereas ACTB-S and ACTB-C correspond to amplified ACTB levels in the sample and control mRNAs, respectively.
To determine whether TAC1 inactivation was due to promoter hypermethylation in esophageal cancer, 2 esophageal cancer cell lines (KYSE220 and BIC) were subjected to 5-Aza-dC (Sigma, St. Louis, Mo.) treatment. Briefly, 1×10^5 cells/ml were seeded onto a 100 mm dish and grown for 24 h. Then, 1 μl of 5 mM 5-Aza-dC per ml of cells was added every 24 hours for 6 days. DNAs and RNAs were harvested on day 6.
as §3, §4

In the next assay the test system is HT29 and HCT116. Description: cDNA microarray of colon cancer cell lines treated with 5-aza-dC versus untreated cells. In kind it is cell-based, human. As to conditions: in at least one of HT29, HCT116; 10 μM 84 hours or 1 μM 24 hours then 60 hours drug-free; log ratio greater than 0.75 (1.65-fold). How it is done: (§6) Next, a cDNA microarray analysis of two colon cancer cell lines was performed, comparing cells treated with 5-aza-dC and untreated cells. Briefly, the colon cancer cell lines HT29 and HCT116 were seeded at a density of 4×10^5 cells per 75 cm^2 culture flask and incubated for 24 hours in growth media. The cells were then treated with 5-aza-dC in either one of the following conditions: a) 10 μM 5-aza-dC for 84 hours or b) 1 μM 5-aza-dC for 24 hours followed by 60 hours of 5-aza-dC-free growth. These two 5-aza-dC treatment regimens were employed to obtain expression data under diverse cellular conditions: the former regimen focused on maximum DNA demethylation, while the latter regimen focused on moderate DNA demethylation to minimize damage to cell viability. […] Genes with very low expression levels in post-treatment specimens were eliminated from further analyses. The cut-off criterion was defined as median signal intensity less than median background intensity plus 1 standard deviation.

A further assay has as its system HCT116. Description: quantitative MSP and real-time RT-PCR with and without 5-aza-dC treatment. In kind it is cell-based, human. The note with it: HCT116, after 5-aza-dC treatment. How it is done: as §6
(§7) Tumor samples were snap frozen on dry ice and stored at −80° C. After thawing, DNA was extracted from samples and treated with bisulfite prior to MSP. Briefly, DNA was extracted from all samples and treated with bisulfite to convert unmethylated cytosines to uracils prior to methylation-specific PCR (MSP) as described previously in Mori, Y., et al. Cancer Res. 64:2434-38 (2004), which is incorporated by reference. DNA methylation status and levels of the 4 candidate markers were determined with real-time quantitative MSP using the ABI 7900 HT Sequence Detection (Taqman) System, as described previously in Sato F., et al., Cancer Res. 62:6820-22 (2002), which is incorporated by reference. Primers and probes for quantitative MSP of (SHP-1, DcR1, RARβ, and DcR2) are disclosed in Takahashi, T. et al, Int'l J. Cancer, 118(4): 924-931 (2005), which is incorporated by reference.
(§8) DNA methylation status and levels of 5 genes were determined with real-time quantitative MSP using the ABI 7900 HT Sequence Detection (Taqman) System, as described previously in Sato F., et al., Cancer Res. 62:6820-22 (2002), which is incorporated by reference. Primers and probes for quantitative MSP of ENG, MAL, CAV1, TAC1, SST, NELL1 and AKAP12 are below in Tables III and IV.
(§9) A normalized methylation value (NMV) reflecting the percentage of DNA methylated for the gene of interest (GoI), was defined as follows: NMV=(GoI-S/GoI-FM)/(ACTB-S/ACTB-FM)*100, where GoI-S and GoI-FM represented GoI methylation levels in the Sample and Fully Methylated DNAs, respectively, while ACTB-S and ACTB-FM corresponds to β-Actin in the sample and Fully Methylated (FM) DNAs, respectively.
(§10) Increased SST and TAC1 methylation levels was also observed in cancers relative to matched normal colonic mucosae from the resection margins (FIG. 2). […] Furthermore, we examined the correlation between promoter methylation and mRNA expression levels of SST and TAC1. For this purpose, we analyzed colon cancer cell lines with and without 5-aza-dC treatment using quantitative real-time PCR. mRNA upregulation occurred for both SST and TAC1 after promoter DNA demethylation by 5-aza-dC treatment (FIG. 4).

The subject of the next assay is HT29. The description is as above. In kind it is cell-based, human. The note with it: HT29, after 5-aza-dC treatment. How it is done: as §6, §7, §8, §9, §10
The test system of a further assay is KYSE220. Description: 5-Aza-dC treatment of esophageal cancer cell line, qMSP and qRT-PCR. In kind it is cell-based. The note with it: 1 μl of 5 mM 5-Aza-dC per ml of cells every 24 hours for 6 days. How it is done:
as §1, §5, §2
To determine whether TAC1 inactivation was due to promoter hypermethylation in esophageal cancer, 2 esophageal cancer cell lines (KYSE220 and BIC) were subjected to 5-Aza-dC (Sigma, St. Louis, Mo.) treatment. Briefly, 1×10^5 cells/ml were seeded onto a 100 mm dish and grown for 24 h. Then, 1 μl of 5 mM 5-Aza-dC per ml of cells was added every 24 hours for 6 days. DNAs and RNAs were harvested on day 6. […]

Where [1] appears, read: OE33, 1 μl of 5 mM 5-Aza-dC per ml of cells every 24 hours for 6 days.
The mark [2] stands for this setting: 1 μl of 5 mM 5-Aza-dC per ml of cells every 24 hours for 6 days.

Each structure is given as a SMILES string. Entries after “also recorded” stand apart in the source; their conditions may differ.

In the case of `Nc1ncn([C@H]2C[C@H](O)[C@@H](CO)O2)c(=O)n1` [5-aza-dC], in the assay with OE33 (OE33, after 5-Aza-dC treatment), the “NMV of AKAP12” value is listed as “diminished” and the “mRNA level (NRV) of AKAP12” value was “increased”. Also, in the assay on OE33 (setting [1]), the “NMV of SST” value was “diminished” and the “mRNA level (NRV) of SST” value was “increased”. Moreover, in the assay with HCT116 and HT29, the “mRNA of NELL1, CAV1, AKAP12, ENG and MAL” value is recorded as “increased; also recorded: upregulation”; the “promoter region DNA methylation of NELL1, CAV1, AKAP12, ENG and MAL” value was “demethylation; also recorded: decreased”. Further, in the assay on BIC (setting [2]), the “NMV of TAC1” value is “diminished” and the “mRNA level (NRV) of TAC1” value is “increased”. For the same molecule, in the assay with BIC (after 5-Aza-dC treatment), the “NMV of AKAP12” value is reported as “diminished” and the “mRNA level (NRV) of AKAP12” value is “increased”. The “genes upregulated after 5-aza-dC treatment” value in the assay with HT29 and HCT116 worked out at 861 genes. For the same molecule, in the assay on HCT116, the “SST mRNA expression index (EI)” value is “upregulation”, the “SST promoter methylation index (MI)” value is “demethylation; also recorded: decreased”, the “TAC1 mRNA expression index (EI)” value was “upregulation” and the “TAC1 promoter methylation index (MI)” value is “demethylation; also recorded: decreased”. In addition, in the assay with HT29, the “SST mRNA expression index (EI)” value was “upregulation”, the “SST promoter methylation index (MI)” value is on record as “demethylation; also recorded: decreased”, the “TAC1 mRNA expression index (EI)” value was “upregulation” and the “TAC1 promoter methylation index (MI)” value is “demethylation; also recorded: decreased”. In the assay with KYSE220, the “NMV of SST” value is on record as “diminished”, the “NMV of TAC1” value is “diminished”, the “mRNA level (NRV) of SST” value is listed as “increased” and the “mRNA level (NRV) of TAC1” value was “increased”.
